Measurements from US4616020A, “Medicaments, vicinal dihydroxyalkylxanthines contained therein, processes for the preparation of these xanthine compounds and intermediate products suitable for these” (Hoechst Aktiengesellschaft, priority 1981, dated 1986).
Like-named read-outs stand apart in the source and are kept apart here.

How the values were obtained:
[1] = Acute toxicity, mortality within 7 days among NMRI mice after single administration; conditions: in vivo, mouse
Excerpt: (§1) Determination of the LD50 values was by the standard method of the mortality occurring within 7 days among NMRI mice after a single intravenous (i.v.), intraperitoneal (i.p.) or oral (p.o.) administration.
*determined by the method of Litchfield and Wilcoxon (J. Pharmacol. exp.

[2] = tested on: acetylcholine-induced bronchospasm; experiment: Bronchospasmolytic activity (Konzett-Rossler): inhibition of acetylcholine-induced bronchospasm in guinea-pigs; type: in vivo; conditions: Cavia porcellus, iv, guinea-pig, urethane anaesthesia; read-out: Bronchospasmolytic effect (ED50) compared to acetylcholine
Procedure: (§2) The test substances were administered in aqueous solution either intravenously (i.v.) or intraduodenally (i.d.). The ED50 values, which represent that dose in mg/kg at which the experimentally produced spasm is decreased by one half compared to that in untreated animals, were determined graphically from the dose-activity curves.

Ratio of LD50 to ED50 = type: in vivo, mouse (LD50); guinea-pigs (ED50); conditions: LD50 i.v. mouse; ED50 i.v. guinea-pig
Procedure: as §2, §1

[3] = tested on: serotonine-induced bronchospasm; experiment: Bronchospasmolytic activity (Konzett-Rossler): inhibition of serotonine-induced bronchospasm in guinea-pigs; type: in vivo; conditions: Cavia porcellus, iv, guinea-pig, urethane anaesthesia; read-out: Bronchospasmolytic effect (ED50) compared to serotonine
Procedure: as §2

[4] = tested on: histamine-induced bronchospasm; experiment: Bronchospasmolytic activity (Konzett-Rossler): inhibition of histamine-induced bronchospasm in guinea-pigs; type: in vivo; conditions: Cavia porcellus, iv, guinea-pig, urethane anaesthesia; read-out: Bronchospasmolytic effect (ED50) compared to histamine
Procedure: as §2

[5] = background statement; cited from earlier work
[6] = tested on: bronchospasm induced with bradykinin; experiment: Inhibitory effect on bronchospasm induced in guinea-pigs with bradykinin; type: in vivo; conditions: Cavia porcellus, read-out: ED50, bronchospasm induced with bradykinin
Excerpt: Since it is regarded as proven that, apart from the biogenic amines, acetylcholine, histamine and serotonine, listed in Table 4, bradykinin also plays an important part as a mediator substance in the provocation of asthma attacks, the inhibitory effect on the bronchospasm induced in guinea-pigs with bradykinin was investigated.

central nervous system = tested on: central nervous system; parameters: species or system mice; conditions: mouse, in vivo, po, 30 mg/kg
Procedure: In contrast, the compounds of the formula I according to the invention have no component stimulating the central nervous system, but, on the contrary, exert a slight depressant effect on the central nervous system which is assessed to be particularly advantageous from the therapeutic point of view. Thus, the spontaneous motility of mice, for example, is decreased by 53% for a period of 11 hours after oral administration of 50 mg/kg of the compound from Example 1.

[7] = background statement; cited from earlier work; remark: listed apart in the source
[8] = tested on: bronchospastic reactions induced with aerosols of acetylcholine, histamine and ascaris extract; experiment: Pulmonary function test on the anaesthetized dog: inhibition of bronchospastic reactions induced with aerosols of acetylcholine, histamine and ascaris extract; type: in vivo; conditions: doses up to 20 mg/kg i.v.

| SMILES | LD50 at 168 h ([1]; iv) | ED50 [2] | ratio of LD50 to ED50 (head is drawing 107) (Ratio of LD50 to ED50) | ED50 [3] | ED50 [4] | therapeutic range [5] | LD50 at 168 h ([1]; po) | ED50 ([6]; iv) | ED50 [6] | increase in spontaneous motility (central nervous system) | side-effects [5] | water solubility [7] | effect on bronchospastic reactions [8] |
| --- | --- | --- | --- | --- | --- | --- | --- | --- | --- | --- | --- | --- | --- |
| CCCCCn1c(=O)c2c(ncn2CCCCC(O)CO)n(C)c1=O (centres unmarked) [Example 21] | 155 mg/kg | 3 mg/kg | 52 | 3 mg/kg | 3 mg/kg |  |  |  |  |  |  |  |  |
| CC(C)CCn1c(=O)c2c(ncn2CCCCC(O)CO)n(C)c1=O (centres unmarked) [Example 22] | 167 mg/kg | 1 mg/kg | 48 | 6.5 mg/kg | 3 mg/kg |  |  |  |  |  |  |  |  |
| CCn1c(=O)n(C)c(=O)c2c1ncn2CCCCC(O)CO (centres unmarked) [Example 24] | 300 mg/kg | 6.5 mg/kg | 49 | 10 mg/kg | 2 mg/kg |  |  |  |  |  |  |  |  |
| CCn1c(=O)n(C(C)C)c(=O)c2c1ncn2CCCCC(O)CO (centres unmarked) [Example 25] | > 400 mg/kg | 2 mg/kg | > 114 | 2 mg/kg | 6.5 mg/kg |  |  |  |  |  |  |  |  |
| CCCCn1c(=O)c2c(ncn2CCCCC(O)CO)n(CC)c1=O (centres unmarked) [Example 26] | 205 mg/kg | 2 mg/kg | 146 | 0.6 mg/kg | 1.6 mg/kg |  |  |  |  |  |  |  |  |
| CCCCCn1c(=O)c2c(ncn2CCCCC(O)CO)n(CC)c1=O (centres unmarked) [Example 28] | 200 mg/kg | 2 mg/kg | 75 | 3 mg/kg | 3 mg/kg |  |  |  |  |  |  |  |  |
| CCCn1c(=O)n(C)c(=O)c2c1ncn2CCCCC(O)CO (centres unmarked) [Example 30] | 250 mg/kg | 6.5 mg/kg | 59 |  | 2 mg/kg |  |  |  |  |  |  |  |  |
| CCCn1c(=O)c2c(ncn2CCCC(O)C(C)O)n(CC)c1=O (centres unmarked) [Example 33] | > 200 mg/kg | 6 mg/kg | > 55 | 2 mg/kg | 3 mg/kg |  |  |  |  |  |  |  |  |
| CCCn1c(=O)c2c(ncn2CCCCCC(O)CO)n(CC)c1=O (centres unmarked) [Example 51] | 300 mg/kg | 2 mg/kg | 150 |  | 2 mg/kg |  |  |  |  |  |  |  |  |
| Cn1c(=O)c2[nH]cnc2n(C)c1=O.NCCN [Theophylline-ethylenediamine, theophylline-ethylenediamine, reference compound] | 195 mg/kg | 8.3 mg/kg |  | 7.3 mg/kg | 5.6 mg/kg | not associated with a significant increase in the therapeutic range | 550 mg/kg | 3 to 10 mg/kg | 25 to 40 mg/kg | 186% |  |  |  |
| NCCN [ethylenediamine] |  |  |  |  |  |  |  |  |  |  | deleterious effect on the cardiovascular system |  |  |
| Cn1c(=O)c2[nH]cnc2n(C)c1=O [theophylline, 1,3-dimethylxanthine] |  |  |  |  |  | very narrow therapeutic range |  |  |  |  |  | lack of water solubility | no effect |
